From US20230330234A1, “HYPERBRANCHED POLYESTER POLYOL DERIVATIVE AS DRUG SOLUBILIZER” (FREIE UNIVERSITÄT BERLIN, priority 2020, published 2023)
≈ marks a conversion by molar mass, not a printed value.

Tests used:
physchem = conditions: aqueous with cosolvent or surfactant or cyclodextrin, thermodynamic from solid
[1] = Size and Z-potential investigation by DLS in PB; format: physicochemical; conditions: h(PG-co-PCL)60S0.95 with solubilized drug
Text: (§1) The following tables (Table 5, Table 6 and Table 7) show the results of the performed analyses. In this context, h(PG-co-PCL)60S0.95 was used as hyperbranched polyester polyol derivative. Its non-sulfated backbone has a molecular weight of 60 kDa.

[2] = Carrying potential of h(PG-co-PCL)60S0.95 by elemental analysis; format: physicochemical; conditions: calculated by elemental analysis
Text: The carrying potential (CP) of the polymer (solubilizing agent) is obtained as the ratio of the loaded and solubilized drug to the amount of solubilizing agent (Eq. 1).
For drugs presenting an absorption band at wavelength lower than 400 nm, the UV-VIS approach is not suitable, due to drug signals overlapping with signals of the solubilizing agent. Therefore, elemental analysis is chosen as alternative approach. The drugs chosen for the solubilization and entrapment contain nitrogen atoms, which are not present in the polymer structure. Via the quantification of the nitrogen content in the sample, it is possible to determine the amount of drug in it. For the loading quantification, the same equation is used as in the previous case.
as §1, with “kDa. The polyester polyol derivative has a sulfation degree of 95%.” for “kDa.”

Solubility in water = conditions: for solubility: Solubility in water

SMILES	solubility at 18 h (physchem)	solubility (Solubility in water)	also measured
CC(C)(C)c1nc(-c2cccc(NS(=O)(=O)c3c(F)cccc3F)c2F)c(-c2ccnc(N)n2)s1 [Dabrafenib]	> 300 µg/mL	30 µg/mL (≈ 57.7 µM)	Size (volume) ([1]; DLS in PB, in nm (unit assumed)): 12 ± 1; Z-potential ([1]; in PB, in mV (unit assumed)): −29.6; Carrying potential [2]: 1% wt %
C=CC(=O)Nc1ccc2[nH]c(=O)n(C3CCN(Cc4ccc(-c5nc6cc[nH]c(=O)c6cc5-c5ccccc5)cc4)CC3)c2c1 [Borussertib]			Carrying potential [2]: 12% wt %
CN1CC[C@@H](NC(=O)Nc2ccc(C#N)cc2)C[C@@H]1c1nc2ccccc2[nH]1 [Glasdegib]	> 300 µg/mL	50 µg/mL (≈ 134 µM)	
Cc1ccc(Nc2nccc(N(C)c3ccc4c(C)n(C)nc4c3)n2)cc1S(N)(=O)=O [Pazopanib]	> 300 µg/mL		Solubility in water (Solubility in water): 40 µg/mL (≈ 91.4 µM)
Cc1nc(NC(=O)N2CCC[C@H]2C(N)=O)sc1-c1ccnc(C(C)(C)C(F)(F)F)c1 [Alpelisib]	> 300 µg/mL	5 µg/mL (≈ 11.3 µM)	
CNC(=O)c1ccccc1Sc1ccc2c(/C=C/c3ccccn3)n[nH]c2c1 [Axitinib]	> 300 µg/mL		Solubility in water (Solubility in water): 0.5 µg/mL (≈ 1.29 µM)
O=C(c1cc(Cc2n[nH]c(=O)c3ccccc23)ccc1F)N1CCN(C(=O)C2CC2)CC1 [Olaparib]	> 300 µg/mL	120 µg/mL (≈ 276 µM)	
C[C@@H]1C[C@H]2[C@@H]3CCC4=CC(=O)C=C[C@]4(C)[C@@]3(F)[C@@H](O)C[C@]2(C)[C@@]1(O)C(=O)CO [Dexamethasone]	< 100 µg/mL		
CCCc1cc(C)[nH]c(=O)c1CNC(=O)c1cc(-c2ccnc(N3CCN(C)CC3)c2)cc2c1cnn2C(C)C [GSK343]	> 300 µg/mL	1 µg/mL (≈ 1.85 µM)	
CNCc1ccc(-c2[nH]c3cc(F)cc4c3c2CCNC4=O)cc1 [Rucaparib]	> 300 µg/mL	10 µg/mL (≈ 30.9 µM)	
CN(C)C1CCN(C(=O)c2ccc(NC(=O)Nc3ccc(-c4nc(N5CCOCC5)nc(N5CCOCC5)n4)cc3)cc2)CC1 [Gedatolisib]	> 300 µg/mL	40 µg/mL (≈ 65 µM)	
NC(=O)c1cccc2cn(-c3ccc([C@@H]4CCCNC4)cc3)nc12 [Niraparib]	> 300 µg/mL	10 µg/mL (≈ 31.2 µM)	
CN(C)C/C=C/C(=O)Nc1cc2c(Nc3ccc(F)c(Cl)c3)ncnc2cc1O[C@H]1CCOC1 [Afatinib]	> 300 µg/mL	10 µg/mL (≈ 20.6 µM)	
Cn1ncc(Cl)c1-c1cc(C(=O)N[C@H](CN)Cc2cccc(F)c2)sc1Cl [GSK2110183]	> 300 µg/mL	7 µg/mL (≈ 16.4 µM)	
C=CC(=O)N1CCC[C@@H](n2nc(-c3ccc(Oc4ccccc4)cc3)c3c(N)ncnc32)C1 [Ibrutinib]	> 300 µg/mL	20 µg/mL (≈ 45.4 µM)	
Cn1cnc2c(F)c(Nc3ccc(Br)cc3F)c(C(=O)NOCCO)cc21 [Binimetinib]	> 300 µg/mL	50 µg/mL (≈ 113 µM)	
COc1cc(/C=C/C(=O)CC(=O)/C=C/c2ccc(O)c(OC)c2)ccc1O [Curcumin]	< 100 µg/mL		Solubility in water (Solubility in water): 6 µg/mL (≈ 16.3 µM)
CC(C)Nc1cc(-c2c[nH]c(C(=O)N[C@H](CO)c3cccc(Cl)c3)c2)c(Cl)cn1 [Ulixertinib]	> 300 µg/mL	4 µg/mL (≈ 9.23 µM)	
CCOc1cc2ncc(C#N)c(Nc3ccc(OCc4ccccn4)c(Cl)c3)c2cc1NC(=O)/C=C/CN(C)C [Neratinib]	> 300 µg/mL	6 µg/mL (≈ 10.8 µM)	
O=C(/C=C/c1cccc(S(=O)(=O)Nc2ccccc2)c1)NO [Belinostat]	> 300 µg/mL	30 µg/mL (≈ 94.2 µM)	
O=C(c1ccc(F)c(F)c1Nc1ccc(I)cc1F)N1CC(O)([C@@H]2CCCCN2)C1 [Cobimetinib]	> 300 µg/mL	40 µg/mL (≈ 75.3 µM)	
CCN1[C@@H](C(=O)NC23CCC(C(=O)O)(CC2)CC3)[C@H](c2cccc(Cl)c2F)[C@]2(C(=O)Nc3cc(Cl)ccc32)C12CCCCC2 [APG-115]	> 300 µg/mL	2 µg/mL (≈ 3.11 µM)	
Cn1ncnc1[C@H]1c2n[nH]c(=O)c3cc(F)cc(c23)N[C@@H]1c1ccc(F)cc1 [Talazoparib]	> 300 µg/mL	100 µg/mL (≈ 263 µM)	
COc1cc(C(=O)O)ccc1NC(=O)[C@@H]1N[C@@H](CC(C)(C)C)[C@](C#N)(c2ccc(Cl)cc2F)[C@H]1c1cccc(Cl)c1F [Idasanutlin]	> 300 µg/mL	1 µg/mL (≈ 1.62 µM)	
COc1cc2nccc(Oc3ccc(NC(=O)C4(C(=O)Nc5ccc(F)cc5)CC4)cc3)c2cc1OC [Cabozantinib]	> 300 µg/mL	2 µg/mL (≈ 3.99 µM)	
COc1cc2ncnc(Nc3ccc(F)c(Cl)c3)c2cc1NC(=O)/C=C/CN1CCCCC1 [Dacomitinib]	> 300 µg/mL	9 µg/mL (≈ 19.2 µM)	
